Results published in ChEMBL document CHEMBL3046319, “PCR-RFLP detection of the E198A mutation conferring resistance to benzimidazoles in field isolates of Monilinia laxa from Greece” (Crop Prot, 2012).
Converted amounts (≈) assume the structure as drawn. The source made the active and inactive calls. The rule behind the calls is not given here.

Experiments:
[1] = tested on: Monilinia laxa; test: Fungicidal activity against Monilinia laxa isolate MLBO7 assessed as reduction in mycelial growth rate at 1 to 10 ug/ml at 31 degC after 5 days; format: functional, organism-based
[2] = tested on: Monilinia laxa; test: Fungicidal activity against Monilinia laxa isolate MLNS1 assessed as reduction in mycelial growth rate at 1 to 10 ug/ml at 31 degC after 5 days; format: functional, organism-based
[3] = tested on: Monilinia laxa; test: Fungicidal activity against Monilinia laxa isolate MLKS2 assessed as reduction in mycelial growth rate at 1 to 10 ug/ml at 31 degC after 5 days; format: functional, organism-based
[4] = tested on: Monilinia laxa; test: Fungicidal activity against Monilinia laxa isolate MLK12 assessed as mean mycelial colony diameter at 25 degC after 4 days; format: functional
[5] = tested on: Monilinia laxa; test: Fungicidal activity against Monilinia laxa isolate MLK12 assessed as reduction in mycelial growth rate at 1 to 10 ug/ml at 25 to 28 degC; format: functional, organism-based
[6] = tested on: Monilinia laxa; test: Fungicidal activity against Monilinia laxa isolate B1 assessed as reduction in mycelial growth rate at 25 degC after 4 days; format: functional, organism-based; conditions: isolate B1, 96 h
[7] = tested on: Monilinia laxa; test: Fungicidal activity against Monilinia laxa isolate MLK1 assessed as mean mycelial colony diameter at 25 degC after 4 days; format: functional
[8] = tested on: Monilinia laxa; test: Fungicidal activity against Monilinia laxa isolate MLP2 assessed as mean mycelial colony diameter at 25 degC after 4 days; format: functional
[9] = tested on: Monilinia laxa; test: Fungicidal activity against Monilinia laxa isolate MLBO8 assessed as reduction in mycelial growth rate at 25 degC after 4 days; format: functional, organism-based; conditions: isolate MLBO8, 96 h
[10] = tested on: Monilinia laxa; test: Fungicidal activity against Monilinia laxa isolate MLK12 assessed as reduction in mycelial growth rate at 1 to 10 ug/ml at 28 degC after 8 days; format: functional, organism-based
[11] = tested on: Monilinia laxa; test: Fungicidal activity against Monilinia laxa isolate MLX5 assessed as reduction in mycelial growth rate at 1 to 10 ug/ml at 25 to 28 degC; format: functional, organism-based
[12] = tested on: Monilinia laxa; test: Fungicidal activity against Monilinia laxa isolate MLBO7 assessed as reduction in mycelial growth rate at 25 degC after 4 days; format: functional, organism-based; conditions: isolate MLBO7, 96 h
[13] = tested on: Monilinia laxa; test: Fungicidal activity against Monilinia laxa isolate MLP7 assessed as reduction in mycelial growth rate at 25 degC after 4 days; format: functional, organism-based; conditions: isolate MLP7, 96 h
[14] = tested on: Monilinia laxa; test: Fungicidal activity against Monilinia laxa isolate KX4 assessed as reduction in mycelial growth rate at 1 to 10 ug/ml at 28 degC after 8 days; format: functional, organism-based
[15] = tested on: Monilinia laxa; test: Fungicidal activity against Monilinia laxa isolate MLBO3 assessed as reduction in mycelial growth rate at 1 to 10 ug/ml at 31 degC after 5 days; format: functional, organism-based
[16] = tested on: Monilinia laxa; test: Fungicidal activity against Monilinia laxa isolate MLP7 assessed as reduction in mycelial growth rate at 1 to 10 ug/ml at 31 degC after 5 days; format: functional, organism-based
[17] = tested on: Monilinia laxa; test: Fungicidal activity against Monilinia laxa isolate MLK24 assessed as reduction in mycelial growth rate at 1 to 10 ug/ml at 31 degC after 5 days; format: functional, organism-based
[18] = tested on: Monilinia laxa; test: Fungicidal activity against Monilinia laxa isolate MLKS2 assessed as reduction in mycelial growth rate at 25 degC after 4 days; format: functional, organism-based; conditions: isolate MLKS2, 96 h
[19] = tested on: Monilinia laxa; test: Fungicidal activity against Monilinia laxa isolate MLP4 assessed as reduction in mycelial growth rate at 1 to 10 ug/ml at 25 to 28 degC; format: functional, organism-based
[20] = tested on: Monilinia laxa; test: Fungicidal activity against Monilinia laxa isolate MLNS2 assessed as reduction in mycelial growth rate at 1 to 10 ug/ml at 28 degC after 8 days; format: functional, organism-based
[21] = tested on: Monilinia laxa; test: Fungicidal activity against Monilinia laxa isolate MLP4 assessed as reduction in mycelial growth rate at 1 to 10 ug/ml at 28 degC after 8 days; format: functional, organism-based
[22] = tested on: Monilinia laxa; test: Fungicidal activity against Monilinia laxa isolate MLC2 assessed as mean number of conidia produced in the colony at 25 degC after 12 days by haemocytometer; format: functional
[23] = tested on: Monilinia laxa; test: Fungicidal activity against Monilinia laxa isolate MLX5 assessed as reduction in mycelial growth rate at 25 degC after 4 days; format: functional, organism-based; conditions: isolate MLX5, 96 h
[24] = tested on: Monilinia laxa; test: Fungicidal activity against Monilinia laxa isolate MLG6 assessed as reduction in mycelial growth rate at 1 to 10 ug/ml at 31 degC after 5 days; format: functional, organism-based
[25] = tested on: Monilinia laxa; test: Fungicidal activity against Monilinia laxa isolate MLK12 assessed as virulence in prune fruits assessed as virulence treated 10 min prior to mycelial inoculation at 24 degC after 10 days relative to isolate MLX1by pathogenicity bioassay; format: functional
[26] = tested on: Monilinia laxa; test: Fungicidal activity against Monilinia laxa isolate MLK24 assessed as reduction in mycelial growth rate at 25 degC after 4 days; format: functional, organism-based; conditions: isolate MLK24, 96 h
[27] = tested on: Monilinia laxa; test: Fungicidal activity against Monilinia laxa isolate MLBO2 assessed as mean mycelial colony diameter at 25 degC after 4 days; format: functional
[28] = tested on: Monilinia laxa; test: Fungicidal activity against Monilinia laxa isolate MLK7 assessed as reduction in mycelial growth rate at 25 degC after 4 days; format: functional, organism-based; conditions: isolate MLK7, 96 h
[29] = tested on: Monilinia laxa; test: Fungicidal activity against Monilinia laxa isolate MLG6 assessed as reduction in mycelial growth rate at 25 degC after 4 days; format: functional, organism-based; conditions: isolate MLG6, 96 h
[30] = tested on: Monilinia laxa; test: Fungicidal activity against Monilinia laxa isolate MLBO2 assessed as virulence in prune fruits assessed as virulence treated 10 min prior to mycelial inoculation at 24 degC after 10 days relative to isolate MLX1by pathogenicity bioassay; format: functional
[31] = tested on: Monilinia laxa; test: Fungicidal activity against Monilinia laxa isolate MLK1 assessed as reduction in mycelial growth rate at 25 degC after 4 days; format: functional, organism-based; conditions: isolate MLK1, 96 h
[32] = tested on: Monilinia laxa; test: Fungicidal activity against Monilinia laxa isolate MLBO5 assessed as virulence in prune fruits assessed as virulence treated 10 min prior to mycelial inoculation at 24 degC after 10 days relative to isolate MLX1by pathogenicity bioassay; format: functional
[33] = tested on: Monilinia laxa; test: Fungicidal activity against Monilinia laxa isolate MLX3 assessed as reduction in mycelial growth rate at 1 to 10 ug/ml at 25 to 28 degC; format: functional, organism-based
[34] = tested on: Monilinia laxa; test: Fungicidal activity against Monilinia laxa isolate MLBO6 assessed as reduction in mycelial growth rate at 25 degC after 4 days; format: functional, organism-based; conditions: isolate MLBO6, 96 h
[35] = tested on: Monilinia laxa; test: Fungicidal activity against Monilinia laxa isolate MLAl8 assessed as reduction in mycelial growth rate at 1 to 10 ug/ml at 31 degC after 5 days; format: functional, organism-based
[36] = tested on: Monilinia laxa; test: Fungicidal activity against Monilinia laxa isolate MLG7 assessed as reduction in mycelial growth rate at 1 to 10 ug/ml at 31 degC after 5 days; format: functional, organism-based
[37] = tested on: Monilinia laxa; test: Fungicidal activity against Monilinia laxa isolate KX3 assessed as reduction in mycelial growth rate at 25 degC after 4 days; format: functional, organism-based; conditions: isolate KX3, 96 h
[38] = tested on: Monilinia laxa; test: Fungicidal activity against Monilinia laxa isolate MLBO5 assessed as mean number of conidia produced in the colony at 25 degC after 12 days by haemocytometer; format: functional
[39] = tested on: Monilinia laxa; test: Fungicidal activity against Monilinia laxa isolate MLNS1 assessed as reduction in mycelial growth rate at 1 to 10 ug/ml at 25 to 28 degC; format: functional, organism-based
[40] = tested on: Monilinia laxa; test: Fungicidal activity against Monilinia laxa isolate MLC5 assessed as reduction in mycelial growth rate at 25 degC after 4 days; format: functional, organism-based; conditions: isolate MLC5, 96 h
[41] = tested on: Monilinia laxa; test: Fungicidal activity against Monilinia laxa isolate KX2 assessed as reduction in mycelial growth rate at 25 degC after 4 days; format: functional, organism-based; conditions: isolate KX2, 96 h
[42] = tested on: Monilinia laxa; test: Fungicidal activity against Monilinia laxa isolate MLNS1 assessed as reduction in mycelial growth rate at 1 to 10 ug/ml at 28 degC after 8 days; format: functional, organism-based

For `COC(=O)Nc1nc2ccccc2[nH]1` [CARBENDAZIM], the inhibition [1] was “Active”, the inhibition [2] was “Active” and the inhibition [3] was “Active”. For the same compound, the Activity [4] was 31 mm, the inhibition [5] was “inactive” and the EC50 [6] was > 50 µg/mL. It also gave an Activity [7] of 30.55 mm, an Activity [8] of 25.5 mm and an EC50 [9] of 0.06 µg/mL (≈ 0.314 µM). The inhibition [10] was “inactive”, the inhibition [11] was “inactive” and the EC50 [12] was 0.1 µg/mL (≈ 0.523 µM). For the same compound, the EC50 [13] was > 50 µg/mL, the inhibition [14] was “inactive” and the inhibition [15] was “Active”. For the same compound, the inhibition [16] was “Active”, the inhibition [17] was “Active” and the EC50 [18] was 0.01 µg/mL (≈ 0.0523 µM). The inhibition [19] was “inactive”, the inhibition [20] was “inactive” and the inhibition [21] was “inactive”. For the same compound, the Activity [22] was 5 /cm2, the EC50 [23] was > 50 µg/mL and the inhibition [24] was “Active”. It also gave an Activity [25] of 99.2%, an EC50 [26] of 0.02 µg/mL (≈ 0.105 µM) and an Activity [27] of 30.2 mm. The EC50 [28] was 0.08 µg/mL (≈ 0.418 µM), the EC50 [29] was 0.12 µg/mL (≈ 0.628 µM) and the Activity [30] was 95%. For the same compound, the EC50 [31] was > 50 µg/mL, the Activity [32] was 100% and the inhibition [33] was “inactive”. The EC50 [34] was 0.12 µg/mL (≈ 0.628 µM), the inhibition [35] was “Active” and the inhibition [36] was “Active”. For the same compound, the EC50 [37] was 0.09 µg/mL (≈ 0.471 µM), the Activity [38] was 3.92 /cm2 and the inhibition [39] was “inactive”. The EC50 [40] was 0.11 µg/mL (≈ 0.575 µM), the EC50 [41] was 0.08 µg/mL (≈ 0.418 µM) and the inhibition [42] was “inactive”.
